This test addresses T1, hNav1.8 (Homo sapiens, UniProt Q9Y5Y9).
T1 construct: host or cells: HEK cells, stably transfected
The test can be described thus: hNav1.8 whole-cell patch-clamp electrophysiology (conventional or PatchXpress 7000) in stably transfected HEK cells. It counts as cell-based. To be noted: estimated IC50 calculated from single point % inhibition; HEK cells expressing hNav1.8; 8 sec prepulse to V1/2, 20 msec step to 0 mV; average of replicates; read-out: Nav1.8 EIC50. The method, boiled down:
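Whole-cell voltage clamp at 22-24 °C in HEK cells stably expressing hNav1.8, manually or on PatchXpress. Current evoked by 20 msec step to 0 mV after 8 s prepulse to each cell's inactivation V1/2; single-concentration % inhibition converted to estimated IC50, using only 20-80% inhibition values, averaged over replicates.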

The structures appear in SMILES notation.

T1 sequence (Q9Y5Y9 whole entry): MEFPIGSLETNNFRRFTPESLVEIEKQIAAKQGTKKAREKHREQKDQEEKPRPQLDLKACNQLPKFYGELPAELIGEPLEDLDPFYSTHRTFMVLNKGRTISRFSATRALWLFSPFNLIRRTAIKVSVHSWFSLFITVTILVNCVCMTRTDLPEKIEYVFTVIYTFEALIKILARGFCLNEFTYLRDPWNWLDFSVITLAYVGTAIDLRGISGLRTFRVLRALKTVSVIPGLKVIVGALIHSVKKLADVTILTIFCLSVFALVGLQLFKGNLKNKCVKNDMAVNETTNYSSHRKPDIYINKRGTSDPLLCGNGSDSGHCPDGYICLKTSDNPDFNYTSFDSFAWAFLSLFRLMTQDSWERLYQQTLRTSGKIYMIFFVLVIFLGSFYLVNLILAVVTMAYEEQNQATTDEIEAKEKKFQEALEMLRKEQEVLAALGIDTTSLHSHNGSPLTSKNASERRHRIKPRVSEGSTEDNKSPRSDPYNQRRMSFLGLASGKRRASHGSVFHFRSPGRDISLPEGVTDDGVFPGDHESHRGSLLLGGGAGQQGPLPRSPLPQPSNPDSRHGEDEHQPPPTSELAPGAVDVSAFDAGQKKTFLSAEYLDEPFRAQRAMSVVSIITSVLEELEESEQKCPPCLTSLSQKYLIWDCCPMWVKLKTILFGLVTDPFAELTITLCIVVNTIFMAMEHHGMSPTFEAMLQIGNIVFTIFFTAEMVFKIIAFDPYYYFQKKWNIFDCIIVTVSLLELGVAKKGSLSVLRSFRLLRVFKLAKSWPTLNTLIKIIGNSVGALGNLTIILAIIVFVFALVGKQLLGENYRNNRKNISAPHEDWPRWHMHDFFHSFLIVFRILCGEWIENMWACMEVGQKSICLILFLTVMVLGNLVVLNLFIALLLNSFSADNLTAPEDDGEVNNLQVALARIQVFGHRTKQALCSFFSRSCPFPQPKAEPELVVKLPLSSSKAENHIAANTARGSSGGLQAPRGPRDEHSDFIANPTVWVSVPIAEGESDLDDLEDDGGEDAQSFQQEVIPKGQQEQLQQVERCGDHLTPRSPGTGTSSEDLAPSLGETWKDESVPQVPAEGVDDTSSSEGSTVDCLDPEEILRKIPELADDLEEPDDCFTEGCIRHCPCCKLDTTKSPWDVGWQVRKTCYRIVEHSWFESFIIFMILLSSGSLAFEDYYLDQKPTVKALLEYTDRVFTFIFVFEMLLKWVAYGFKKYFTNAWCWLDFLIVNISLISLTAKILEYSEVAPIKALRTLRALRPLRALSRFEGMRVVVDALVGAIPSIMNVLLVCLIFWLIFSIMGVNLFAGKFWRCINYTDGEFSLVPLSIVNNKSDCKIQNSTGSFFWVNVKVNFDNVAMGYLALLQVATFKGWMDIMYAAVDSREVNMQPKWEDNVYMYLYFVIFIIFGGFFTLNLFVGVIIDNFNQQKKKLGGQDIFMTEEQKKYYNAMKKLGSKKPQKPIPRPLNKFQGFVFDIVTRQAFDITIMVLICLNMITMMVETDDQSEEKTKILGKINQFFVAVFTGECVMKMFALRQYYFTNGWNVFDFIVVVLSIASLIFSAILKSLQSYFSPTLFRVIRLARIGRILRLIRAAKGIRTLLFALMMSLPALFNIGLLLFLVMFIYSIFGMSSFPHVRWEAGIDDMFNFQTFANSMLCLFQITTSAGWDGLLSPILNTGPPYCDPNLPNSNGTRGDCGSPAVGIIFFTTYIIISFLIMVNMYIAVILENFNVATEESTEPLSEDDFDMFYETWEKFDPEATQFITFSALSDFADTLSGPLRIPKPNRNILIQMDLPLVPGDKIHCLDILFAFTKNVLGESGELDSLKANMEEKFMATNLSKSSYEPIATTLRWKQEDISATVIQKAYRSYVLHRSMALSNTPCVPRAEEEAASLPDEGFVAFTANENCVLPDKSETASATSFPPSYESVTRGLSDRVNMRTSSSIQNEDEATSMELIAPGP

On to `CO[C@H](C)[C@H](N)c1nc2cc(CC(C)(C)C)c(F)cc2[nH]1` [Example 96, (1R,2R)-1-[5-(2,2-Dimethylpropyl)-5-fluoro-1H-benzimidazol-2-yl]-2-methoxypropan-1-amine], for which the IC50 is 188 nM.
`N#Cc1ccc(-c2ccc3[nH]c([C@@H](N)CC(N)=O)nc3c2)cc1F` [Example 117, (3S)-3-Amino-3-[5-(4-cyano-3-fluorophenyl)-1H-benzimidazol-2-yl]propanamide]: the IC50 was 2490 nM.
With `CCC[C@H](N)c1nc2cc(-c3ccc(C#N)cc3)ccc2[nH]1` [Example 147, 4-{2-[(1S)-1-Aminobutyl]-1H-benzimidazol-5-yl}benzonitrile] the figure was 110 nM; with `C[C@H](O)[C@@H](N)c1nc2cc(C(C)(C)C)ccc2[nH]1` [Example 16, (1S,2S)-1-Amino-1-(5-tert-butyl-1H-benzimidazol-2-yl)propan-2-ol], 2510 nM; with `CCC(C)(C)c1ccc2[nH]c([C@@H](N)COC)nc2c1` [Example 31, (1R)-2-Methoxy-1-[5-(2-methylbutan-2-yl)-1H-benzimidazol-2-yl]ethanamine], 125 nM.
With `CC(C)[C@@H](N)c1nc2cc(-c3ccc(C#N)cc3)ccc2[nH]1` [Example 56, 4-{2-[(1R)-1-amino-2-methylpropyl]-1H-benzimidazol-5-yl}benzonitrile] the figure was 97.5 nM; with `C[C@@H](O)[C@H](N)c1nc2cc(-c3ccc(C#N)c(C#N)c3)ccc2[nH]1` [Example 88, 4-{2-[(1R,2R)-1-Amino-2-hydroxypropyl]-1H-benzimidazol-5-yl}benzene-1,2-dicarbonitrile], 993 nM.
As for `C[C@@H](C(N)=O)[C@H](N)c1nc2cc(C(C)(C)C)ccc2[nH]1` (single isomer, unassigned) [Example 103], the figure is 15.4 nM.
For the molecule `C[C@H](N)c1nc2cc(C(C)(C)C)ccc2[nH]1` [Example 7, (1S)-1-(5-tert-Butyl-1H-benzimidazol-2-yl)ethanamine], the IC50 is 439 nM.
For `CCCc1ccc2[nH]c(C(C)(C)N)nc2c1` [Example 69, 2-(5-Propyl-1H-benzimidazol-2-yl)propan-2-amine], the IC50 was 3900 nM.
With `CC[C@H](N)c1nc2cc(CC(C)(C)C)ccc2[nH]1` [Example 112, (1S)-1-[5-(2,2-Dimethylpropyl)-1H-benzimidazol-2-yl]propan-1-amine] the figure was 187 nM.
With `C[C@@H](O)[C@H](N)c1nc2cc(-c3ccc(C#N)cc3)ccc2[nH]1` [Example 40, 4-{2-[(1R,2R)-1-Amino-2-hydroxypropyl]-1H-benzimidazol-5-yl}benzonitrile] the figure was 77.1 nM.

Source of the values: patent publication US8927587B2, “Chemical compounds” (Pfizer Limited, priority 2012, dated 2015).
